Laboratory results taken from US20110064662A1, “KIT FOR PRODUCING MOLECULAR PROBE FOR PET SCREENING FOR DRUG DISCOVERY” (RIKEN, priority 2007, published 2011).

Experiments:
[1] = PET analysis of the brain of the monkey after intravenous injection of labeled compound; type: in vivo; details: for elimination from the brain / initial brain uptake for 10 minutes after administration: monkey; for stability against metabolism: concluded from monkey brain PET images; for initial brain uptake for 10 minutes after administration: i.v. about 900 MBq, PET of brain, compared with conventional labeled compound
Protocol: The N-(2,5-dimethoxybenzyl)-N-[5-fluoro(4-[^11-C]methylphenoxy)-phenyl]acetamide ([^11C]-9) (^11C-labeled compound) produced in Example 9 was diluted with a mixed solution of physiological saline (3.6 ml), propylene glycol (0.3 ml), ethanol (0.1 ml), and a Tween 80 surfactant (0.1 ml), a radioactivity of about 900 MBq was introduced into a monkey through an intravenous injection, and a PET analysis of the brain of the monkey was performed using an animal PET scanner SHR-7700 manufactured by Hamamatsu Photonics K.K. ([^11C]-20).
[^11C]DAA1106 represented by the formula below was administered into a monkey in the same manner as in Example 10 except that [^11C]DAA1106 was used in place of the N-(2,5-dimethoxybenzyl)-N-[5-fluoro(4-[^11C]methylphenoxy)phenyl]acetamide ([^11C]-9) (labeled compound) produced in Example 9. The time radioactivity curves thereof are shown also in FIG. 3. […] [^11C]DAA1106 was separately produced according to WO 99/06353.
The 1-(2-chloro-5-methylphenyl)-N-methyl-(1-methylpropyl)-3-isoquinolinecarboxamide ([^11C]-20) (^11C-labeled compound) produced in Example 11 was diluted with a mixed solution of physiological saline (3.6 ml), propylene glycol (0.3 ml), ethanol (0.1 ml), and a Tween 80 surfactant (0.1 ml), a radioactivity of about 900 MBq was introduced into a monkey through an intravenous injection, and a PET analysis of [^11C]-20 in the brain of the monkey was performed using an animal PET scanner SHR-7700 manufactured by Hamamatsu Photonics K.K. The results are shown in FIG. 2.
[^11C]PK11195 represented by the formula below was administered into a monkey in the same manner as in Example 12 except that [^11C]PK11195 was used in place of the 1-(2-chloro-5-methylphenyl)-N-methyl-(1-methylpropyl)-3-isoquinolinecarbox amide ([^11C]-20) (labeled compound) produced in Example 11. […] [^11C]PK11195 was separately produced according to R. Camsonne et al., Journal of Labeled Compounds and Radiopharmaceuticals, 1984, 11, pp. 985-991.
The 10-O-p-[^11C]methylbenzylginkgolide B ([^11C]-29) (^11C-labeled compound) produced in Example 16 was diluted with a mixed solution of physiological saline (1.8 ml), propylene glycol (0.15 ml), ethanol (0.05 ml), a Tween 80 surfactant (0.05 ml), and intralipos (2.05 ml), a radioactivity of about 900 MBq was introduced into a monkey through an intravenous injection, and a PET analysis of [^11C]-29 in the brain of the monkey was performed using an animal PET scanner SHR-7700 manufactured by Hamamatsu Photonics K.K. The results are shown in FIG. 8.
[^18F]-30 represented by the formula below was administered into a monkey in the same manner as in Example 17 except that [^18F]-30 was used in place of the 10-O-p-[^11C]-methylbenzylginkgolide B ([^11C]-29) (^11C-labeled compound) produced in Example 16. […] [^18F]-30 was separately produced according to Makiko Suehiro, et al., J. Labelled Compd. Radiopharm., 47, pp. 485-491, 2004.

[2] = test system: P-glycoprotein; experiment: Experiment for determining P-glycoprotein substrates (brain radioactivity in rats with or without cyclosporin A pre-administration); type: in vivo; details: for amount of tracer present in the brain upon pre-administration of CsA: CsA in different doses 30 min before tracer, brain removed 30 min after tracer
Protocol: P-glycoprotein inhibitor cyclosporin A (CsA) was administered into rats 30 minutes prior to the administration of tracers. Thirty minutes after the administration of tracers, the rats were decapitated to remove the brains and measure the radioactivity. […] An SUV value in the present experiment is the average of the results obtained from 4 rats and expressed using a standard deviation.

[3] = Proportion of brain SUV to blood SUV in rats, with and without brain blood perfusion; type: in vivo; details: for uptake by the parenchyma of the brain: concluded from pre- and post-perfusion data; for amount of tracer after the brain blood perfusion: physiological saline perfused via the heart before decapitation
Protocol: As in Example 18, P-glycoprotein inhibitor cyclosporin A (CsA) was administered into rats in an amount of 25 mg/kg body weight of a rat 30 minutes prior to the administration of tracers. Thirty minutes after the administration of tracers, the rats were decapitated to remove the brains and measure the radioactivity. The figures show the results obtained from control rats into which no CsA was administered and from those into which CsA was administered in an amount of 25 mg/kg, expressed as a proportion of the brain SUV to the blood SUV. The SUV value in the present experiment is the average of the results obtained from two rats and expressed using a standard deviation. 10-O-p-[^11C]methylbenzylginkgolide B ([^11C]-29) (^11C-labeled compound) produced in Example 16 and [^18F]-30 were used as the tracers. […] FIG. 11 is from the measurement of radioactivity in the brain removed after decapitation, and FIG. 12 is from the measurement of radioactivity performed after flushing the blood out of the brain by infusing/perfusing physiological saline into the heart of a rat before decapitation.

[4] = target: PAF receptor (Homo sapiens, UniProt P25105); details: more strongly than natural ginkgolide B; cited from earlier work
Sequence of PAF receptor (P25105 whole entry): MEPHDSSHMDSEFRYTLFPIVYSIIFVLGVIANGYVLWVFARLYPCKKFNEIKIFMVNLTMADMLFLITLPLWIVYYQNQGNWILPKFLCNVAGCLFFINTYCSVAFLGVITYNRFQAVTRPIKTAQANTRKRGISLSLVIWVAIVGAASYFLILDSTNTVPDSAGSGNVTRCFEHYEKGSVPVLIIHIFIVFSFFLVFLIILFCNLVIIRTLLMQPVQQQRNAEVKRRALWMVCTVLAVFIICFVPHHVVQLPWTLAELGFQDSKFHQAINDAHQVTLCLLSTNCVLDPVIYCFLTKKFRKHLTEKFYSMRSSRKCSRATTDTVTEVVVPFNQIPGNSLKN

[5] = time radioactivity curves after i.v. administration

| stability against metabolism [1] | initial brain uptake for 10 minutes after administration [1] | Compound | brain uptake ([1]; monkey brain PET) | elimination from the brain [1, 5] | also measured |
| --- | --- | --- | --- | --- | --- |
| – | – | COc1ccc(O[11CH3])c(CN(C(C)=O)c2cc(F)ccc2Oc2ccccc2)c1 [[^11C]DAA1106, reference compound] | – | – | elimination from the brain ([1]; in vivo, iv): barely eliminated from the brain |
| stable against metabolism | greater initial brain uptake | CCC(C)N(C)C(=O)c1cc2ccccc2c(-c2cc([11CH3])ccc2Cl)n1 (centres unmarked) [[^11C]-20, 1-(2-chloro-5-[^11C]methylphenyl)-N-methyl-(1-methylpropyl)-3-isoquinolinecarboxamide] | greater than that of the conventional labeled compound | promptly eliminated from the brain with time | – |
| – | – | CCC(C)N([11CH3])C(=O)c1cc2ccccc2c(-c2ccccc2Cl)n1 (centres unmarked) [[^11C]PK11195, reference compound] | – | barely eliminated from the brain | – |
| – | – | C[C@@H]1C(=O)O[C@H]2[C@H](O)C34C5OC(=O)[C@@]3(OC3OC(=O)C(O)C34[C@H](C(C)(C)C)[C@@H]5[18F])[C@@]12O (some centres unmarked) [[^18F]-30, reference compound] | barely taken up by the brain | – | blood-brain barrier penetration ([1]; monkey brain PET): little blood-brain barrier penetration; amount of tracer present in the brain upon pre-administration of CsA [2]: did not change; proportion of the brain SUV to the blood SUV ([3]; 30 min after tracer, control and CsA 25 mg/kg): ≤ 0.04; uptake by the parenchyma of the brain [3]: not taken up by the parenchyma of the brain; amount of tracer after the brain blood perfusion ([3]; control and CsA 25 mg/kg): washed away by the brain blood perfusion |
| stable against metabolism | greater initial brain uptake | COc1ccc(OC)c(CN(C(C)=O)c2cc(F)ccc2Oc2ccc([11CH3])cc2)c1 [[^11C]-9, N-(2,5-dimethoxybenzyl)-N-[5-fluoro-(4[^11C]methylphenoxy)phenyl]acetamide] | greater than that of the conventional labeled compound | – | – |
| – | – | Cc1ccc(COC2C(=O)OC3O[C@@]45C(=O)OC6C[C@@H](C(C)(C)C)C32C64[C@@H](O)[C@@H]2OC(=O)[C@@H](C)[C@@]25O)cc1 (some centres unmarked) [compound 29, 10-O-p-methylbenzylginkgolide B] | – | – | binding with a PAF receptor relative to natural ginkgolide B [4]: 10 times |
| stable against metabolism | increased initial brain uptake | 10-O-p-[^11C]methylbenzylginkgolide B [[^11C]-29] | – | promptly eliminated from the brain with time | amount of tracer present in the brain upon pre-administration of CsA [2]: changed in a volume-dependent manner; SUV values relative to those of [^11C]verapamil ([2]; brain SUV, [^11C]verapamil as standard reference): about 30%; uptake by the parenchyma of the brain [3]: taken up by the parenchyma of the brain; amount of tracer after the brain blood perfusion ([3]; control and CsA 25 mg/kg): did not change |
